Results published in patent publication US7994173B2, “2-piperazin-1-yl-3H-imidazo[4,5-b]pyridine derivatives” (Janssen Pharmaceutica N.V., priority 2007, dated 2011).
Structures can show the parent of a compound that is named as a salt.

Columns and labels:
[1] = tested on: fundus of the stomach (gastric tone); assay: Gastric tone measured by an electronic barostat in conscious dogs; format: in vivo, dog (female beagle); conditions: for Maximum change in volume (mean): relaxation of the fundus, 1 hour after I.D. administration, 0.63 mg/kg
Protocol: Gastric tone cannot be measured by manometric methods. Therefore an electronic barostat was used. This allows the study of the physiological pattern and regulation of gastric tone in conscious dogs and the influence of test-compounds on this tone. The barostat consists of an air injection system which is connected by a double-lumen 14-French polyvinyl tube to an ultrathin flaccid polyethylene bag (maximal volume: ±700 ml). Variations in gastric tone were measured by recording changes in the volume of air within an intragastric bag, maintained at a constant pressure. The barostat maintains a constant pressure (preselected) within a flaccid air-filled bag introduced into the stomach, changing the volume of air within the bag by an electronic feedback system. Thus, the barostat measures gastric motor activity (contraction or relaxation) as changes in intragastric volume (decrease or increase resp.) at a constant intragastric pressure. The barostat consists of a strain gauge linked by an electronic relay to an air injection-aspiration system. Both the strain gauge and the injection system are connected by means of double-lumen polyvinyl tube to an ultrathin polyethylene bag. A dial in the barostat allows selection of the pressure level to be maintained within the intragastric bag. Female beagle dogs, weighing 7-17 kg, were trained to stand quietly in Pavlov frames. They were implanted with a gastric cannula under general anaesthesia and aseptic precautions. After a median laparotomy, an incision was made through the gastric wall in longitudinal direction between the greater and the lesser curve, 2 cm above the nerves of Latarjet. The cannula was secured to the gastric wall by means of a double purse string suture and brought out via a stub wound at the left quadrant of the hypochondrium. Dogs were allowed a recovery period of two weeks. At the beginning of the experiment, the cannula was opened in order to remove any gastric juice or food remnants. If necessary, the stomach was cleansed with 40 to 50 ml lukewarm water. The ultrathin bag of the barostat was positioned into the fundus of the stomach through the gastric cannula. In order to ensure easy unfolding of the intragastric bag during the experiment, a volume of 150-200 ml was injected into the bag by raising the pressure to maximally 14 mm Hg (about 1.87 kPa) very briefly. This procedure was repeated twice. After a stabilization period of 60 minutes at an intragastric pressure of 6 mmHg (about 0.81 kPa), the test compound was administered subcutaneously, or intraduodenally, at 2 mmHg (0.27 kPa). […] Table C-1 summarizes the mean maximal change in volume (in ml) on relaxation of the fundus, 1 hour after I.D. administration of the test compound (0.63 mg/kg).

[2] = tested on: fundus of the stomach (gastric tone); assay: Gastric tone measured by an electronic barostat in conscious dogs; format: in vivo, dog (female beagle); conditions: for Maximum change in volume (Table C-2): I.D.

| melting point [°C] | Structure (SMILES) | Maximum change in volume (mean) [1] [mL] | further results |
| --- | --- | --- | --- |
| – | CN(C)c1ccnc2c1nc(N1CCN(Cc3ccccc3)CC1)n2C [compound 9] | 185 | – |
| – | Cn1c(N2CCN(Cc3cccnc3)CC2)nc2cccnc21 [compound 3] | 154 | – |
| 182 | Cn1c(N2CCN(Cc3cccnc3)CC2)nc2cccnc21 (as salt: HCl) (hydrate or solvate) [Co. No. 3] | – | – |
| – | Cn1c(N2CCN(Cc3ccccc3)CC2)nc2cccnc21 [compound 11] | 220 | Maximum change in volume (Table C-2) ([2]; dose 0.0025 mg/kg): 83 mL; Maximum change in volume (Table C-2) ([2]; dose 0.01 mg/kg): 157 mL; Maximum change in volume (Table C-2) ([2]; dose 0.04 mg/kg): 146 mL; Maximum change in volume (Table C-2) ([2]; dose 0.16 mg/kg): 180 mL; Maximum change in volume (Table C-2) ([1]; I.D., dose 0.63 mg/kg): 220 mL |
| 128 | CN(C)c1ccnc2c1nc(N1CCN(Cc3ccccc3)CC1)n2C [Co. No. 9] | – | – |
| – | CCCc1nc2c(cc1C)nc(N1CCN(Cc3ccccc3)CC1)n2C [compound 1] | 237 | – |
| – | Cn1c(N2CCN(Cc3ccc4c(c3)OCO4)CC2)nc2cccnc21 [compound 10] | 251 | – |
| – | Cn1c(C2CCCN(Cc3ccccc3)CC2)nc2cccnc21 (centres unmarked) [(72) of WO-01/46189, reference compound] | – | Maximum change in volume (Table C-2) ([2]; dose 0.16 mg/kg): 45 mL |
| 114 | Cn1c(N2CCN(Cc3ccc4c(c3)OCO4)CC2)nc2cccnc21 [Co. No. 10] | – | – |
| 98 | Cn1c(N2CCN(Cc3ccccc3)CC2)nc2cccnc21 [Co. No. 11] | – | – |
| – | Cn1c(N2CCNCC2)nc2cccnc21 [compound 14] | – | Maximum change in volume (mean) ([2]; relaxation of the fundus, 1 hour after I.D. administration, administered at 0.16 mg/kg (footnote *)): 154.6 mL |

| Structure (SMILES) | melting point [°C] | Maximum change in volume (mean) [1] [mL] | further results |
| --- | --- | --- | --- |
| Cn1c(N2CCNCC2)nc2cccnc21 | 136 | – | – |
